According to patent publication US9169254B2, “Spiroimidazolone derivative” (Chugai Seiyaku Kabushiki Kaisha, priority 2009, dated 2015):

Molecular target: T1, human PTH1 receptor (Homo sapiens, UniProt Q03431)
T1 sequence (Q03431 27-593): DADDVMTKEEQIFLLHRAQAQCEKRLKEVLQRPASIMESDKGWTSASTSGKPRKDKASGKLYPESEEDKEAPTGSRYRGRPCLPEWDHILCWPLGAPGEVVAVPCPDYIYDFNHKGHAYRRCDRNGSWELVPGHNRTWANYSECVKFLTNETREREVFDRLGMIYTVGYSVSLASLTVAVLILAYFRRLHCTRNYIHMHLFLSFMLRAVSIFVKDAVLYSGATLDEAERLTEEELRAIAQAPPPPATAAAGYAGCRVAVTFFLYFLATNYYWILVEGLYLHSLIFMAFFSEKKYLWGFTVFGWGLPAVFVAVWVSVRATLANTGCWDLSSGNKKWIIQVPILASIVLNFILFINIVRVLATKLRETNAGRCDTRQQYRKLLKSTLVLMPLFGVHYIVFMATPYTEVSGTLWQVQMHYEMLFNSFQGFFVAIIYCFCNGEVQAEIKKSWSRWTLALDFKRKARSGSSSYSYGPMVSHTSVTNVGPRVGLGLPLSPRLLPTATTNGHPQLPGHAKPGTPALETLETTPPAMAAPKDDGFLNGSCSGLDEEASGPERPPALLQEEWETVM
Experiment: In vitro cAMP signal activity in HKRK-B7 cells (LLC-PK1 cells overexpressing the human PTH1 receptor)
Assay type: cell-based
Details: HKRK-B7 cells; compound at 1×10^−3 M; cAMP produced as percentage of that produced by hPTH(1-34) at 100 nM

SMILES	cAMP production activity (%)
Cc1cc(C(=O)N(C)C)ccc1CCS(=O)(=O)N1CCC2(CC1)N=C(c1cccc(C(F)(F)F)c1C)NC2=O [Compound 111, 3,N,N-trimethyl-4-{2-[2-(2-methyl-3-trifluoromethyl-phenyl)-4-oxo-1,3,8-triaza-spiro[4.5]dec-1-ene-8-sulfonyl]-ethyl}-benzamide]	93%
Cc1cc(C(=O)N2CCC(CO)CC2)cc(C)c1/C=C/S(=O)(=O)N1CCC2(CC1)N=C(c1cccc(OC(F)(F)F)c1)NC2=O [Compound 960, 8-{(E)-2-[4-(4-hydroxymethyl-piperidine-1-carbonyl)-2,6-dimethyl-phenyl]-ethenesulfonyl}-2-(3-trifluoromethoxy-phenyl)-1,3,8-triaza-spiro[4.5]dec-1-en-4-one]	84%
Cc1cc(N(C)C(N)=O)cc(C)c1CCS(=O)(=O)N1CCC2(CC1)N=C(C1CCC(CC(F)(F)C(F)(F)F)CC1)NC2=O (stereo not drawn) [Compound 1042, 1-[3,5-dimethyl-4-(2-{4-oxo-2-[4-(2,2,3,3,3-pentafluoro-propyl)-cyclohexyl]-1,3,8-triaza-spiro[4.5]dec-1-ene-8-sulfonyl}-ethyl)-phenyl]-1-methyl-urea]	102%
Cc1cc(N(CC#N)C(N)=O)ccc1/C=C/S(=O)(=O)N1CCC2(CC1)N=C(c1cccc(OC(F)(F)F)c1)NC2=O [Compound 729, 1-Cyanomethyl-1-(3-methyl-4-{(E)-2-[4-oxo-2-(3-trifluoromethoxy-phenyl)-1,3,8-triaza-spiro[4.5]dec-1-ene-8-sulfonyl]-vinyl}-phenyl)-urea]	45%
CN(C)CCNC(=O)Cc1ccc(/C=C/S(=O)(=O)N2CCC3(CC2)N=C(C2CCCCC2)NC3=O)cc1 [Compound 208, 2-{4-[(E)-2-(2-cyclohexyl-4-oxo-1,3,8-triaza-spiro[4.5]dec-1-ene-8-sulfonyl)-vinyl]-phenyl}-N-(2-dimethylamino-ethyl)-acetamide]	22%
CCCCCCCCCC1=NC2(CCN(S(=O)(=O)CCc3c(C)cc(C(=O)O)cc3C)CC2)C(=O)N1 [Compound 796, 3,5-dimethyl-4-[2-(2-nonyl-4-oxo-1,3,8-triaza-spiro[4.5]dec-1-ene-8-sulfonyl)-ethyl]-benzoic acid]	64%
Cc1cc(N2C(=O)N(C)C(C)(C)C2=O)cc(C)c1/C=C/S(=O)(=O)N1CCC2(CC1)N=C(c1cccc(OC(F)(F)F)c1)NC2=O [Compound 614, 3-(3,5-dimethyl-4-{(E)-2-[4-oxo-2-(3-trifluoromethoxy-phenyl)-1,3,8-triaza-spiro[4.5]dec-1-ene-8-sulfonyl]-vinyl}-phenyl)-1,5,5-trimethyl-imidazolidine-2,4-dione]	25%
Cc1cc(N2C(=O)CC[C@@H]2COCCO)cc(C)c1/C=C/S(=O)(=O)N1CCC2(CC1)N=C(C1CCCCC1)NC2=O [Compound 710, 2-cyclohexyl-8-((E)-2-{4-[(R)-2-(2-hydroxy-ethoxymethyl)-5-oxo-pyrrolidin-1-yl]-2,6-dimethyl-phenyl}-ethenesulfonyl)-1,3,8-triaza-spiro[4.5]dec-1-en-4-one]	76%
CC(=O)NCCc1ccc(/C=C/S(=O)(=O)N2CCC3(CC2)N=C(C2CCCCC2)NC3=O)cc1 [Compound 481, N-(2-{4-[(E)-2-(2-cyclohexyl-4-oxo-1,3,8-triaza-spiro[4.5]dec-1-ene-8-sulfonyl)-vinyl]-phenyl}-ethyl)-acetamide]	59%
O=C1NC([C@H]2C[C@H]3CC[C@@H]2C3)=NC12CCN(S(=O)(=O)c1cccc(Cl)c1)CC2 [Compound 22, 2-(1R,2S,4S)-bicyclo[2.2.1]hept-2-yl-8-(3-chloro-benzenesulfonyl)-1,3,8-triaza-spiro[4.5]dec-1-en-4-one]	43%
O=C1NC(C2CCCCC2)=NC12CCN(S(=O)(=O)/C=C/c1nccs1)CC2 [Compound 343, 2-Cyclohexyl-8-((E)-2-thiazol-2-yl-ethenesulfonyl)-1,3,8-triaza-spiro[4.5]dec-1-en-4-one]	13%
Cc1cc(N(C)C(N)=O)cc(C)c1CCS(=O)(=O)N1CCC2(CC1)N=C(C1CCCC(C(F)(F)F)C1)NC2=O (stereo not drawn) [Compound 1050, 1-(3,5-Dimethyl-4-{2-[4-oxo-2-(3-trifluoromethyl-cyclohexyl)-1,3,8-triaza-spiro[4.5]dec-1-ene-8-sulfonyl]-ethyl}-phenyl)-1-methyl-urea]	92%
CC1(C)OC[C@H](Cn2ccc3c(/C=C/S(=O)(=O)N4CCC5(CC4)N=C(C4CCCCC4)NC5=O)c(F)ccc32)O1 [Compound 500, 2-cyclohexyl-8-{(E)-2-[1-((S)-2,2-dimethyl-[1,3]dioxolan-4-ylmethyl)-5-fluoro-1H-indol-4-yl]-ethenesulfonyl}-1,3,8-triaza-spiro[4.5]dec-1-en-4-one]	61%

Results, then the molecule that gave them:

cAMP production activity (%)	SMILES
104%	Cc1cc(N(C)C(N)=O)cc(C)c1CCS(=O)(=O)N1CCC2(CC1)N=C(CCCCCCCCCCCO)NC2=O [Compound 1361, 1-(4-{2-[2-(11-hydroxy-undecyl)-4-oxo-1,3,8-triaza-spiro[4.5]dec-1-ene-8-sulfonyl]-ethyl}-3,5-dimethyl-phenyl)-1-methyl-urea]
58%	CC(=O)Nc1ccc(CCS(=O)(=O)N2CCC3(CC2)N=C(C2CCC(CC(F)F)CC2)NC3=O)c(C)c1 (stereo not drawn) [Compound 1060, N-[4-(2-{2-[4-(2,2-Difluoro-ethyl)-cyclohexyl]-4-oxo-1,3,8-triaza-spiro[4.5]dec-1-ene-8-sulfonyl}-ethyl)-3-methyl-phenyl]-acetamide]
105%	[2H]C([2H])([2H])N(C(N)=O)c1cc(C)c(/C=C/S(=O)(=O)N2CCC3(CC2)N=C(c2ccc(F)c(C(F)(F)F)c2)NC3=O)c(C)c1 [Compound 1312, 1-(4-{(E)-2-[2-(4-fluoro-3-trifluoromethyl-phenyl)-4-oxo-1,3,8-triaza-spiro[4.5]dec-1-ene-8-sulfonyl]-vinyl}-3,5-dimethyl-phenyl)-1-[1,1,1-^2H3]methyl-urea]
97%	Cc1cc(N(C)C(N)=O)cc(C)c1CCS(=O)(=O)N1CCC2(CC1)N=C(c1cccc(-c3ccccc3-c3ccccc3)c1)NC2=O [Compound 1087, 1-{3,5-Dimethyl-4-[2-(4-oxo-2-[1,1′;2′,1″]terphenyl-3-yl-1,3,8-triaza-spiro[4.5]dec-1-ene-8-sulfonyl)-ethyl]-phenyl}-1-methyl-urea]
92%	Cc1cc(C(=O)N2CCC(O)(CF)CC2)cc(C)c1/C=C/S(=O)(=O)N1CCC2(CC1)N=C(c1ccc(Cl)c(OC(C)(C)C(F)(F)F)c1)NC2=O [Compound 1271, 2-[4-chloro-3-(2,2,2-trifluoro-1,1-dimethyl-ethoxy)-phenyl]-8-{(E)-2-[4-(4-fluoromethyl-4-hydroxy-piperidine-1-carbonyl)-2,6-dimethyl-phenyl]-ethenesulfonyl}-1,3,8-triaza-spiro[4.5]dec-1-en-4-one]
57%	Cc1cc2ccc1CCS(=O)(=O)N1CCC3(CC1)N=C(NC3=O)c1cc(cc(C(F)(F)F)c1)OCC/C=C/CCCCCN(C)C2=O [Compound 1413]
67%	Cc1cc(C(=O)N2CCC(C)(O)CC2)cc(C)c1/C=C/S(=O)(=O)N1CCC2(CC1)N=C(c1ccc(C(F)F)c(F)c1)NC2=O [Compound 1219, 2-(4-difluoromethyl-3-fluoro-phenyl)-8-{(E)-2-[4-(4-hydroxy-4-methyl-piperidine-1-carbonyl)-2,6-dimethyl-phenyl]-ethenesulfonyl}-1,3,8-triaza-spiro[4.5]dec-1-en-4-one]
49%	Cc1cc(CN(C)C(N)=O)cc(C)c1/C=C/S(=O)(=O)N1CCC2(CC1)N=C(C1CCC(C)CC1)NC2=O (stereo not drawn) [Compound 1301, 1-(3,5-dimethyl-4-{(E)-2-[2-(4-methyl-cyclohexyl)-4-oxo-1,3,8-triaza-spiro[4.5]dec-1-ene-8-sulfonyl]-vinyl}-benzyl)-1-methyl-urea]
33%	Cc1cc(C(=O)N2CCC(O)(CF)CC2)cc(C)c1/C=C/S(=O)(=O)N1CCC2(CC1)N=C(c1ccc3cc[nH]c3c1)NC2=O [Compound 1268, 8-{(E)-2-[4-(4-fluoromethyl-4-hydroxy-piperidine-1-carbonyl)-2,6-dimethyl-phenyl]-ethenesulfonyl}-2-(1H-indol-6-yl)-1,3,8-triaza-spiro[4.5]dec-1-en-4-one]
119%	CCCOCCCCCC1=NC2(CCN([S@TB18](=O)(=O)/C=C/c3c(C)cc(N(C)C(N)=O)cc3C)CC2)C(=O)N1 [Compound 1124, 1-(3,5-dimethyl-4-{(E)-2-[4-oxo-2-(5-propoxy-pentyl)-1,3,8-triaza-spiro[4.5]dec-1-ene-8-sulfonyl]-vinyl}-phenyl)-1-methyl-urea]
58%	CCOc1c(N(C)c2cc(C)c(CCS(=O)(=O)N3CCC4(CC3)N=C([C@H]3CC[C@H](C)CC3)NC4=O)c(C)c2)c(=O)c1=O [Compound 1367, 3-[(3,5-Dimethyl-4-{2-[2-(4-methyl-cyclohexyl)-4-oxo-1,3,8-triaza-spiro[4.5]dec-1-ene-8-sulfonyl]-ethyl}-phenyl)-methyl-amino]-4-ethoxy-cyclobut-3-ene-1,2-dione]
